Experimental findings from patent US12527732B2, “Biobased polyglyceryl esters and compositions comprising the same” (Inolex Investment Corporation, priority 2021, dated 2026) are described below.

Type in all cases: physicochemical
The nature of data set [1]: STERC via bubble pressure tensiometry. The conditions noted are these: at the CMC.
Method: Dynamic surface tension reduction, i.e. surface tension reduction as a function of time, is measured by bubble pressure tensiometry using the maximum bubble pressure (MBP) method. When dynamic surface tension data obtained from MBP experiments is plotted as a function of surface age, fitting of the data to a first-order decay function as in Formula (III) enables one to obtain the Surface Tension Equilibration Rate Constant (STERC) for a given surfactant at a specific concentration.
Surface Tension Equilibration Rate Constant (STERC) is calculated according to Formula (III): γt=γeq+(γi−γeq)^−t/K (III) where: • γt=surface tension at time=t, in mN/m; • γeq=equilibrium surface tension, in mN/m; • γi=initial surface tension, in mN/m; • t=time, in ms; and • K=surface tension equilibration rate constant (STERC) in ms^−1.
Determination of STERC via Bubble Pressure Tensiometry. Dynamic surface tensions were determined on a Kruss BP100 Bubble Pressure Tensiometer, using a 0.256 mm OD silane-treated glass capillary submerged to a depth of 1.00 cm for testing and buoyancy compensated. […] The STERC as reported herein is determined at the CMC and is obtained by plotting the dynamic surface tension as a function of surface age and fitting the data to the equation below to obtain a first-order rate constant for reduction of surface tension from the initial value to the equilibrium value. […]
The nature of data set [2]: Solubilization of 1% Spectrastat G2 Natural by solubilizer, Formulation Turbidity (FT). The following applies: 5% solubilizer, aqueous. The procedure: (§1) Measurement of Turbidity via Nephelometric Turbidimetry. Clarity of solutions and formulations is reported as Aqueous Solution Turbidity (AST) or Formulation Turbidity (FT) measured in nephelometric turbidity units (NTU). Turbidity values were determined on an HF Scientific Micro 100 Benchtop Turbidity Meter operating at room temperature (23° C.±2° C.). Aqueous Solution Turbidity is an inherent property of a PGE composition when measured as specified at 5% in deionized water at 23±2° C.

A short description of data set [3]: Aqueous Solution Turbidity (AST) / water solubility and clarity of 5% and 10% aqueous solutions. As to the method:
as §1

Data set [4] in a line: Critical Micelle Concentration (CMC) via equilibrium surface tensiometry. The conditions noted are these: pure water, 22° C.
Method: Determination of Critical Micelle Concentration (CMC) via Equilibrium Surface Tensiometry. […] Dipping distance for the plate was set to 3.00 mm prior to return to the surface within +/−0.01 mm for measurement of surface tension force. All tests were performed at 22° C.±0.2° C. For each surfactant a 1.00% stock solution in pure water was prepared and incrementally dosed into initially pure water to augment surfactant concentration while measuring surface tension after each concentration augmentation. Each surfactant was tested in duplicate runs at concentrations ranging from 0.001% to 0.500% of surfactant. The CMC value is taken at the intersection between the regression straight line of the linearly dependent region and the straight line passing through the plateau when surface tension is plotted as a function of concentration.

Regarding Heptyl Glucoside [CE4], in data set [1] (22° C.), the “STERC at CMC” value is 3226 ms^−1. For the same substance, the STERC in data set [1] (unit printed s^−1) was found to be 3226 s⁻¹. The FT in data set [2] was found to be 4.21 NTU. Besides, the “AST @ 5%” value in data set [3] (5% in deionized water, 23±2° C.) is on record as 0.65 NTU. In addition, the “AST @ 10%” value in data set [3] (10% in deionized water) is 1.2 NTU. Besides, the CMC in data set [4] came to 0.0672 wt %.
